Results published in US4978663A, “5-(1-aminocyclohexyl)-2(1H)-pyridinone compounds which have pharmaceutical utility” (priority 1989, dated 1990).

What was measured:
[1] = 2-phenyl-1,4-benzoquinone-induced writhing test in mice (PQW), analgesic activity; format: in vivo
[2] = Dark Avoidance Assay (reversal of scopolamine induced memory deficit); format: in vivo; details: mice, s.c., retest after 24 hours
Description: In this assay mice are tested for their ability to remember an unpleasant stimulus for a period of 24 hours. A mouse is placed in a chamber that contains a dark compartment; a strong incadescent light drives it to the dark compartment, where an electric shock is administered through metal plates on the floor. The animal is removed from the testing apparatus and tested again, 24 hours later, for the ability to remember the electric shock.
If scopolamine, an anticholinergic that is known to cause memory impairment, is administered before an animal's initial exposure to the test chamber, the animal re-enters the dark compartment shortly after being placed in the test chamber 24 hours later.

| Compound | Analgesic PQW, % Inhibition of Writhing at 20 mg/kg., s.c. [1] [%] | also measured |
| --- | --- | --- |
| CC1(C)CCC(N)(c2ccc(=O)[nH]c2)CC1.Cl [5-(1-Amino-4,4-dimethylcyclohexyl)-2(1H)-pyridinone hydrochloride] | 62 | % of animals with scopolamine induced memory deficit reversal ([2]; 2.5 mg/kg): 20% |
| Cl.NC1(c2ccc(=O)n(Cc3ccccc3)c2)CCCCC1 [5-(1-Aminocyclohexyl)-1-(phenylmethyl)-2(1H)-pyridinone hydrochloride] | 42 | % of animals with scopolamine induced memory deficit reversal ([2]; 0.16 mg/kg): 20% |
| NC1(c2ccc(=O)n(CC#CCN3CCCC3)c2)CCCCC1 [5-(1-Aminocyclohexyl)-1-[4-(pyrrolidin-1-yl)-2-butynyl]-2(1H)-pyridinone] | 53 | – |
| CC(=O)NC1(c2ccc(=O)n(C)c2)CCCCC1 [N-[1-(1,6-Dihydro-1-methyl-6-oxo-3-pyridinyl)cyclohexyl]acetamide] | – | % of animals with scopolamine induced memory deficit reversal ([2]; 0.63 mg/kg): 33% |
| O=C(CN1CCC(C(=O)c2ccc(F)cc2)CC1)NC1(c2ccc(=O)[nH]c2)CCCCC1 [N-[1-(1,6-Dihydro-6-oxo-3-pyridinyl)cyclohexyl][4-(4-fluorobenzoyl)]-1-piperidineacetamide] | 77 | – |
| CC(=O)NC1(c2ccc(=O)[nH]c2)CCCCC1 [N-[1-(1,6-Dihydro-6-oxo-3-pyridinyl)cyclohexyl]acetamide] | 58 | – |
| O=C(NC1(c2ccc(=O)[nH]c2)CCCCC1)c1ccccc1 [N-[1-(1,6-Dihydro-6-oxo-3-pyridinyl)cyclohexyl]benzamide] | 72 | – |
| CNC(=O)Oc1ccc2c(c1)[C@]1(C)CCN(C)[C@@H]1N2C [Physostigmine, reference compound] | – | % of animals with scopolamine induced memory deficit reversal ([2]; 0.31 mg/kg): 20% |
| CCC(=O)O[C@](Cc1ccccc1)(c1ccccc1)[C@H](C)CN(C)C [Propoxyphene, reference compound] | – | Analgesic PQW, % Inhibition of Writhing ([1]; 3.9 mg/kg, s.c.): 50% |
| CC(=O)NC1(c2ccc(=O)n(C)c2)CCC(C(C)(C)C)CC1 (stereo not drawn) [cis-N-[1-(1,6-Dihydro-1-methyl-6-oxo-3-pyridinyl)-4-(1,1-dimethylethyl)cyclohexyl]acetamide] | 47 | % of animals with scopolamine induced memory deficit reversal ([2]; 1.3 mg/kg): 33% |
